From patent publication US20240382465A1, “AROMATIC ACETYLENE DERIVATIVE, AND PREPARATION METHOD THEREFOR AND USE THEREOF” (priority 2021, published 2024)
≈ marks a conversion by molar mass, not a printed value.

Key:
[1] = system: Klebsiella pneumoniae ATCC 51504; assay type: in vivo, CD-1 female mice; conditions: CD-1 mice; for Change in the body weight of the mice / Reduction of total bacterial load of Klebsiella pneumoniae ATCC 51504 in the lungs compared with the control group: 150 mg/kg intravenous; for Bacterial load in lung, LOG (CFU/mouse), Mean: 150 mg/kg intravenous 2 hours after infection, lungs taken 24 hours after infection
Method: The efficacy of the compounds of the present disclosure against pulmonary infection caused by Klebsiella pneumoniae ATCC 51504 was determined by the following method. The experimental process is briefly described as follows: The experimental day of inoculating Klebsiella pneumoniae ATCC 51504 was defined as Day 0. On Day −4 and Day −1, CD-1 female mice (6-8 weeks old, purchased from VitalRiver Experimental Animal Technology Co., Ltd., divided into 3 groups, 5 animals in each group) were intraperitoneally injected with cyclophosphamide to induce an immunosuppressive state in mice. Klebsiella pneumoniae ATCC 51504 cells were cultured in advance on a Muaeller-Hinton agar culture plate in a 37° C. incubator overnight. The single colonies were collected, suspended in physiological saline, and adjusted to the required concentration using a turbidity meter. CD-1 female mice were inoculated via intranasal instillation. Each mouse was inoculated with 50 μL of bacterial solution, with an inoculation volume of 1×10^7 CFU/mouse. Two hours after infection, CD-1 female mice were intravenously administered with compound 17 and compound 32 at 150 mg/kg (solvent: 10% HP-β-CD in Sterile Water for Injection). 24 hours after infection, CD-1 female mice were euthanized. The lung tissue was taken, homogenized with physiological saline, and then diluted 10 times in a gradient for a total of 5 times. Then, 10 μL of lung tissue homogenate of each dilution ratio was taken, and inoculated into bacterial culture plates, which were incubated in a 37° C. incubator overnight, then photographed and saved. A culture plate with an appropriate dilution ratio was selected to count the number of colonies and calculate the bacterial load in the lung tissue to evaluate the efficacy of the drug in inhibiting bacteria. The determination results of the efficacy of the compounds of the present disclosure on pulmonary infection caused by Klebsiella pneumoniae are shown in Tables 4 and 5 below.

E. coli ATCC 25922 = assay: Antibacterial activity, MIC by broth microdilution (CLSI); assay type: cell-based; conditions: Escherichia coli, ATCC25922; E. coli ATCC 25922, 35° C., 18 to 24 hours; read-out: MIC(E. coli)
Outline: (§1)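 Broth microdilution per CLSI, compound at 64-0.06 μg/mL final in twofold steps (1% DMSO from 100× working solutions). Inoculum 5×10^5 cfu/ml; plates incubated at 35° C for 18-24 hours.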

K. pneumoniae ATCC13883 = assay: as above; assay type: cell-based; conditions: Klebsiella pneumoniae; K. pneumoniae ATCC13883, 35° C., 18 to 24 hours; read-out: MIC(K. Pneumoniae)
Outline: as §1

[2] = Pharmacokinetic assay in mice; assay type: in vivo; conditions: ICR mice, 15 mg/kg, IV; for AUC(0-inf) / clearance / half-life / Vd: male, mouse, plasma; for AUC(0-inf): read-out: Area under curve AUC0-∞; for clearance: read-out: Clearance CL; for half-life: read-out: Half life T½ (converted); for Vd: read-out: Volume of distribution Vdss
Method: ICR mice were used as test animals. The injected compounds 17 and 32 of the present disclosure were measured using the LC/MS/MS method to determine the drug concentrations in plasma at different times, in order to study the pharmacokinetic characteristics of the compounds of the present disclosure in mice.
ICR mice, male, weighing 27.8-38 g, were purchased from VitalRiver Laboratory Animal Technology Co., Ltd.
An appropriate amount of the pharmaceutical compound was weighed, added with an appropriate amount of 10% HP-β-CD, vortexed, sonicated for 20 minutes to dissolve the particles, and filtered (PTFE, […]) to obtain […] of a colorless solution.
ICR mice were divided into groups of injection of each test compound (nine mice in each group), fasted overnight, then administered by injection (IV, at an amount of 15 mg/kg and a volume of 5 mL/kg), and fed 4 hours after administration.
About 0.1 mL of blood was collected from the orbit before administration and 0.083 hours, 0.25 hours, 0.5 hours, 1 hour, 2 hours, 4 hours, 8 hours, 12 hours and 24 hours after administration. The whole blood samples were placed in EDTA-K2-containing anticoagulant tubes. After collected, the blood samples were placed on ice, and centrifuged to separate plasma (centrifugation conditions: 1500 g, 10 minutes). The collected plasma was stored at −40 to −20° C. before analysis.
The content of the compound to be tested in the plasma of mice after injection was determined using LC-MS/MS.

[3] = target: recombinant Pseudomonas aeruginosa LpxC (Pseudomonas aeruginosa (strain ATCC 15692 / DSM 22644 / CIP 104116 / JCM 14847 / LMG 12228 / 1C / PRS 101 / PAO1), UniProt P47205); assay: Inhibition of LpxC enzymatic activity (fluorescamine assay); assay type: biochemical; conditions: recombinant P. aeruginosa LpxC 5 nM, substrate 10 μM, 25° C., 120 minutes; read-out: IC50
Outline: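 Recombinant P. aeruginosa LpxC (5 nM) with substrate UDP-3-O-(R-3-hydroxydecanoyl)-GlcNAc (10 μM), 120 min at 25 °C; compound 8 points, 4-fold dilution, 0.61-10,000 nM. Product detected by fluorescamine (ex 390/em 495 nm) after stopping with pH 8.0 phosphate; % inhibition versus DMSO control.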

SMILES	Change in the body weight of the mice [1]	Reduction of total bacterial load of Klebsiella pneumoniae ATCC 51504 in the lungs compared with the control group [1] [log value]	Bacterial load in lung, LOG (CFU/mouse), Mean [1]	MIC (E. coli ATCC 25922) [µg/mL]	MIC (K. pneumoniae ATCC13883) [µg/mL]	Pharmacokinetic properties (conclusion) [2]	AUC(0-inf) [2] [ng·h/mL]	clearance [2] [mL/min/kg]	half-life [2] [h]	Vd [2] [L/kg]	IC50 [3] [nM]
C[C@H](O)c1nccn1Cc1cc(-c2ccc(C#Cc3ccc(CN4CCC(C(=O)O)CC4)cc3)cc2)on1 [Example 17, (S)-1-(4-((4-(3-((2-(1-hydroxyethyl)-1H-imidazol-1-yl)methyl)isoxazol-5-yl)phenyl)ethynyl)benzyl)piperidin-4-carboxylic acid]	no significant change	4.78	4.17 LOG (CFU/mouse)	4 (≈ 7.83 µM)	8 (≈ 15.7 µM)	good pharmacokinetic properties	22500	11.1	1.3	0.48	6.7
C[C@H](O)c1nccn1Cc1cc(-c2ccc(C#Cc3ccc(CN4CC(CC(=O)O)C4)cc3)cc2)on1 [Example 32, (S)-2-(1-(4-((4-(3-((2-(1-hydroxyethyl)-1H-imidazol-1-yl)methyl)isoxazol-5-yl)phenyl)ethynyl)benzyl)azetidin-3-yl)acetic acid]	no significant change	4.24	4.42 LOG (CFU/mouse)	2 (≈ 4.03 µM)	4 (≈ 8.06 µM)	good pharmacokinetic properties	20300	12.3	1.21	0.612	19.8
